From ChEMBL document CHEMBL1201862, “PubChem BioAssay data set” (2004)
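Dose response: 5 concentrations. Exposure: 48 h. Format: 96-well plates. Endpoint: linear interpolation; highest concentration if not reached. GI50: concentration for 50% inhibition of growth.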 The source made the active and inactive calls. Cut-off read from the data, not from the text of the source: active = GI50 up to about 1.1 µM and inactive = higher.

What was measured:
Assay in all cases: growth of human tumour cells (NCI), 48 h
SNB-78 = system: SNB-78
SF-268 = system: SF-268
K562 = system: K562
UO-31 = system: UO-31
LXFL 529 = system: LXFL 529
HL-60 = system: HL-60
NCI-H460 = system: NCI-H460
HOP-92 = system: HOP-92
UACC-257 = system: UACC-257
SK-MEL-28 = system: SK-MEL-28
OVCAR-8 = system: OVCAR-8
Malme-3M = system: Malme-3M
CCRF-CEM = system: CCRF-CEM
M19-MEL = system: M19-MEL
IGROV-1 = system: IGROV-1
OVCAR-5 = system: OVCAR-5
HCT-116 = system: HCT-116
EKVX = system: EKVX
OVCAR-3 = system: OVCAR-3
A549 = system: A549
U-251 = system: U-251
SNB-19 = system: SNB-19
RXF 393 = system: RXF 393
SF-295 = system: SF-295
KM-20L2 = system: KM-20L2
DMS-273 = system: DMS-273
RXF 631 = system: RXF 631
MOLT-4 = system: MOLT-4
M14 = system: M14
DLD-1 = system: DLD-1
HOP-62 = system: HOP-62
A498 = system: A498
NCI-H23 = system: NCI-H23
ACHN = system: ACHN
SN12C = system: SN12C
HCC 2998 = system: HCC 2998
SF-539 = system: SF-539
UACC-62 = system: UACC-62
SNB-75 = system: SNB-75
LOX IMVI = system: LOX IMVI
XF498 = system: XF498
RPMI-8226 = system: RPMI-8226
DMS-114 = system: DMS-114
NCI-H522 = system: NCI-H522
786-0 = system: 786-0
KM12 = system: KM12
SW-620 = system: SW-620
HCT-15 = system: HCT-15
SK-MEL-5 = system: SK-MEL-5
NCI-H226 = system: NCI-H226
TK-10 = system: TK-10
SR = system: SR
SK-MEL-2 = system: SK-MEL-2
HT-29 = system: HT-29

## CC1=C(C(=O)Nc2ccccc2)C(c2ccc([N+](=O)[O-])cc2)C(C(=O)Nc2ccccc2)=C(C)N1
SNB-78
  GI50: 33.8 µM (inactive)
SF-268
  GI50: 22.6 µM (inactive)
K562
  GI50: 15.4 µM (inactive)
UO-31
  GI50: 22.4 µM (inactive)
LXFL 529
  GI50: 17.4 µM (inactive)
HL-60
  GI50: 13.1 µM (inactive)
NCI-H460
  GI50: 21.1 µM (inactive)
HOP-92
  GI50: 17.9 µM (inactive)
UACC-257
  GI50: 18.5 µM (inactive)
SK-MEL-28
  GI50: 31.5 µM (inactive)
OVCAR-8
  GI50: 17.3 µM (inactive)
Malme-3M
  GI50: 34.2 µM (inactive)
CCRF-CEM
  GI50: 10.3 µM (inactive)
M19-MEL
  GI50: 16.6 µM (inactive)
IGROV-1
  GI50: 28.6 µM (inactive)
OVCAR-5
  GI50: 40.9 µM (inactive)
HCT-116
  GI50: 18.5 µM (inactive)
EKVX
  GI50: 21.5 µM (inactive)
OVCAR-3
  GI50: 21.7 µM (inactive)
A549
  GI50: 34 µM (inactive)
U-251
  GI50: 17.4 µM (inactive)
SNB-19
  GI50: 10.4 µM (inactive)
RXF 393
  GI50: 17.6 µM (inactive)
SF-295
  GI50: 22.4 µM (inactive)
KM-20L2
  GI50: 18.3 µM (inactive)
DMS-273
  GI50: 24.4 µM (inactive)
RXF 631
  GI50: 21.2 µM (inactive)
MOLT-4
  GI50: 7.05 µM (inactive)
M14
  GI50: 18.1 µM (inactive)
DLD-1
  GI50: 26.6 µM (inactive)
HOP-62
  GI50: 39.1 µM (inactive)
A498
  GI50: 26.2 µM (inactive)
NCI-H23
  GI50: 17 µM (inactive)
ACHN
  GI50: 37 µM (inactive)
SN12C
  GI50: 30.5 µM (inactive)
HCC 2998
  GI50: 20.2 µM (inactive)
SF-539
  GI50: 20.7 µM (inactive)
UACC-62
  GI50: 12.2 µM (inactive)
SNB-75
  GI50: 26.6 µM (inactive)
LOX IMVI
  GI50: 15.2 µM (inactive)
XF498
  GI50: 15.1 µM (inactive)
RPMI-8226
  GI50: 15.2 µM (inactive)
DMS-114
  GI50: 20.7 µM (inactive)
NCI-H522
  GI50: 18.3 µM (inactive)
786-0
  GI50: 19.8 µM (inactive)
KM12
  GI50: 15.8 µM (inactive)
SW-620
  GI50: 15.2 µM (inactive)
HCT-15
  GI50: 17.6 µM
SK-MEL-5
  GI50: 24.1 µM (inactive)
NCI-H226
  GI50: 59.6 µM (inactive)
TK-10
  GI50: 28.7 µM (inactive)
SR
  GI50: 18.4 µM (inactive)
SK-MEL-2
  GI50: 14.7 µM (inactive)
HT-29
  GI50: 18.2 µM (inactive)
